Drawing on ChEMBL document CHEMBL1142723, “Discovery of a potent, selective, and efficacious class of reversible alpha-ketoheterocycle inhibitors of fatty acid amide hydrolase effective as analgesics” (J Med Chem, 2005), this text covers IC50 and Ki for eight compounds.

In general, pIC50 refers to the negative decadic logarithm of the IC50, by convention in mol/L. Read a low pIC50 as a high IC50. A word on the pKi: it is the negative decadic logarithm of the Ki, by convention in mol/L.

pIC50, pKi: −log10 of the molar value.

In test [1] the target is T1, Fatty-acid amide hydrolase 1 (Homo sapiens, UniProt O00519).
T1 sequence (O00519 whole entry): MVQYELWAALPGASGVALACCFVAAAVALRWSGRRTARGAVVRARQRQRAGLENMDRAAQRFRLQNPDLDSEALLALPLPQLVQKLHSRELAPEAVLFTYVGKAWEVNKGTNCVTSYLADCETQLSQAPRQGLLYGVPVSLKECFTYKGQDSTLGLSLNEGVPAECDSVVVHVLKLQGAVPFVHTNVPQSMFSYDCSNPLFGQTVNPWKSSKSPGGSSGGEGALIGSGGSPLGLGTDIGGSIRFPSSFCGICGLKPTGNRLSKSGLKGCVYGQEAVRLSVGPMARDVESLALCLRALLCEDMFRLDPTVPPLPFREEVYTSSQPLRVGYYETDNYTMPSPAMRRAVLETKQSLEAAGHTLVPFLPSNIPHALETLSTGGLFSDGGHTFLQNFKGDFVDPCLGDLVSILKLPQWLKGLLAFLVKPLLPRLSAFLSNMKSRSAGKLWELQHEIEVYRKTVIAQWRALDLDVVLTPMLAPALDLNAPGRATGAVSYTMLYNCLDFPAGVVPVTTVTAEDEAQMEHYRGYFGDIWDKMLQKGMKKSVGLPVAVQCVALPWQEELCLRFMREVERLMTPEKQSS
Nature of the test: Inhibitory concentration against Fatty-acid amide hydrolase.

The target in test [2] is T2, Fatty-acid amide hydrolase 1 (Rattus norvegicus, UniProt P97612).
T2 sequence (P97612 whole entry): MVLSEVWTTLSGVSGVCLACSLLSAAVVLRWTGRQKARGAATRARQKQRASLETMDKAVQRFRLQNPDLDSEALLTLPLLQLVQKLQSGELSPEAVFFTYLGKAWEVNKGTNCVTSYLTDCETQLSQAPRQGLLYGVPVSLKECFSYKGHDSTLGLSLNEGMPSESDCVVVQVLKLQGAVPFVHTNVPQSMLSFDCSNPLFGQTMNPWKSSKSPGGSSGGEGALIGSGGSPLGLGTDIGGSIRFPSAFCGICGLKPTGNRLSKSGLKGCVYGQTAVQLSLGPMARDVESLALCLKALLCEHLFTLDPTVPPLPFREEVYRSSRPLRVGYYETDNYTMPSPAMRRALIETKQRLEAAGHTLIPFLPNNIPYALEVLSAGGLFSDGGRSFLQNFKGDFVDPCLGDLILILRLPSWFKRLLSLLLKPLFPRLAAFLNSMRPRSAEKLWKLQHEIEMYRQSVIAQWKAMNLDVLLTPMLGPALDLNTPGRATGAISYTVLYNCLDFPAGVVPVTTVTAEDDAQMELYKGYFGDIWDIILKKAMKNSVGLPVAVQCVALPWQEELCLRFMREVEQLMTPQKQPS
Put plainly: Inhibitory constant determined against recombinant Fatty-acid amide hydrolase from rat expressed in Escherichia coli.

Test [3] in a line: Inhibitory concentration against KIAA1363 hydrolase.
For the next test, the target named is T3, Liver carboxylesterase 1 (Homo sapiens, UniProt P23141).
T3 sequence (P23141 whole entry): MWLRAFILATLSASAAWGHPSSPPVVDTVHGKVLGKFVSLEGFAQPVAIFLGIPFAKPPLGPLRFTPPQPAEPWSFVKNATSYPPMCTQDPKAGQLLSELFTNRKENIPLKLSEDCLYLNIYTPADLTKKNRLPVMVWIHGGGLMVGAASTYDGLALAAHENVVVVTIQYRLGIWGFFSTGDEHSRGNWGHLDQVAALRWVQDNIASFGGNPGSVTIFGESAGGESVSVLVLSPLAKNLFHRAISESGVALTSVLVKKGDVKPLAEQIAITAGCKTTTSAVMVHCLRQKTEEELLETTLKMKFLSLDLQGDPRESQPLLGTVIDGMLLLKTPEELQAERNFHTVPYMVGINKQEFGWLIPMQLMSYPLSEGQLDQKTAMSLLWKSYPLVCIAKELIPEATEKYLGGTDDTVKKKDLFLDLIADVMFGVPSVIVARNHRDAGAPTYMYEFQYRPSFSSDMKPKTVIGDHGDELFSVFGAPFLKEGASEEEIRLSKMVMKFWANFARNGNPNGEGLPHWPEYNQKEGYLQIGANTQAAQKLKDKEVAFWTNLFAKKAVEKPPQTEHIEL
Nature of the test: Inhibitory concentration against Triacylglycerol hydrolase.

The target of test [4] is T1, Fatty-acid amide hydrolase 1. Put plainly: Inhibitory constant determined against recombinant Fatty-acid amide hydrolase from human expressed in COS-7 cells. The format is cell-based.

For `CCCCCCCCC#CCCCCCCCC(=O)c1ncc(-c2ccccn2)o1`, the figures for the pIC50 (in test [1]; in test [3]; against Liver carboxylesterase 1) were 7.70, under 4.00 and 4.52, respectively. For the same compound, the pKi in test [2] is 8.00.
Take `CCCCCCCCC#CCCCCCCCC(=O)c1nc2ncccc2o1`: the pIC50 in test [1] is 8.70; in test [3] it was 4.70; on Liver carboxylesterase 1, 6.30. Further, the pKi in test [2] was 9.85.
Take `O=C(Cc1ccccc1)C(F)(F)F`: the pIC50 in test [1] was under 4.00; in test [3] it was 5.00; at Liver carboxylesterase 1, 8.00.
For the compound `O=C(c1ccccc1)C(F)(F)F`, the values for the pIC50 (in test [1]; in test [3]; on Liver carboxylesterase 1) were under 4.00, 5.00 and 8.40, respectively.
As for `CCCCCCCC/C=C\CCCCCCCC(=O)c1ncco1`, in test [4], the pKi is 7.35. Also, the pIC50 in test [3] is under 4.00.
In the case of `CCCCCCCC/C=C\CCCCCCCC(=O)C(F)(F)F`, the pIC50 in test [1] is 5.35; in test [3], 5.96; at Liver carboxylesterase 1 it was 5.32. The pKi in test [2] was 7.10.
In the case of `CCCCCCCC/C=C\CCCCCCCC(=O)c1ncc(-c2ccccn2)o1`, the pIC50 in test [1] is 6.82; in test [3], under 4.00; at Liver carboxylesterase 1 it was under 4.00. In addition, the pKi in test [4] is 8.00.
On to `CCCCCCCCCCCC(=O)C(F)(F)F`, for which the pIC50 in test [3] is 6.30; against Liver carboxylesterase 1, 7.22.
